Experiment [1] deals with Human Cbl-b (residues 40-426) (Homo sapiens (Human), UniProt Q13191). Briefly: Cbl-b SPR assay. It is filed as binding. The conditions noted are these: for Fold of selectivity: C-cbl SPR Kd vs Cbl-b SPR Kd; for Kd: SPR, 20° C. In a few lines: (§1)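 Captured protein (1300-1500 RU for both isoforms) was probed in multi-cycle kinetics with 6 concentrations in 2-fold dilution, 60 s contact, 40 μl/min, dissociation 120-1200 s, double-referenced. Kinetic and affinity parameters came from a 1:1 binding fit. For slow off-rates, kd was set independently by a chaser-based method.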

For another experiment, the target named is c-Cbl (Homo sapiens (Human), UniProt P22681). Briefly: C-Cbl LCK Ub TR-FRET assay (C-cbl Lck HTRF). In kind it is biochemical. In a few lines:
(§2)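 Signal is read once the detection mix has stood 20 min at ambient temperature. Curves are anchored by DMSO as maximum and by omission of LCK as minimum.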
Background: In TR-FRET formats the signal depends on donor and acceptor labels being close together.

A further experiment addresses c-Cbl (residues 47-435) (Homo sapiens (Human), UniProt P22681). Briefly: c-Cbl SPR assay. Particulars: 20° C. In kind it is binding. In a few lines:
as §1
For orientation: Surface plasmon resonance follows binding to a sensor surface in real time, without labels.

A further experiment deals with Cbl-b (Homo sapiens (Human), UniProt Q13191). Briefly: Cbl-b LCK Ub TR-FRET assay (Cbl-b Lck HTRF). It is filed as biochemical. The conditions noted are these: for IC50: Cbl-b LCK Ub TR-FRET, Example 121; for (fold-selectivity) Cbl-b and C-Cbl Selectivity: ratio C-cbl Lck HTRF IC50 / Cbl-b Lck HTRF IC50. A digest of the protocol:
as §2

Chain of Human Cbl-b (residues 40-426) (Q13191 40-426): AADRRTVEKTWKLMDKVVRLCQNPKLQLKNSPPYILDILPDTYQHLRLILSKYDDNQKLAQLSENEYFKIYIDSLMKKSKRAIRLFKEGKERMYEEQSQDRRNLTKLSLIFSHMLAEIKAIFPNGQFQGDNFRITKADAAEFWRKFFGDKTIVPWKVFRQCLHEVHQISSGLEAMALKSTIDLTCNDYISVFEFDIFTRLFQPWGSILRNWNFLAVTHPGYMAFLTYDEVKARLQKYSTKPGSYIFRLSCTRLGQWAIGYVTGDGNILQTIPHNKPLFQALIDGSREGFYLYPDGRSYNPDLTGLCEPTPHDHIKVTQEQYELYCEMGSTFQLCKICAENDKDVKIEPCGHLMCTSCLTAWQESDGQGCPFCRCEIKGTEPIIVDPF
Chain of Cbl-b (Q13191 40-426): as above
Chain of c-Cbl (P22681 47-435): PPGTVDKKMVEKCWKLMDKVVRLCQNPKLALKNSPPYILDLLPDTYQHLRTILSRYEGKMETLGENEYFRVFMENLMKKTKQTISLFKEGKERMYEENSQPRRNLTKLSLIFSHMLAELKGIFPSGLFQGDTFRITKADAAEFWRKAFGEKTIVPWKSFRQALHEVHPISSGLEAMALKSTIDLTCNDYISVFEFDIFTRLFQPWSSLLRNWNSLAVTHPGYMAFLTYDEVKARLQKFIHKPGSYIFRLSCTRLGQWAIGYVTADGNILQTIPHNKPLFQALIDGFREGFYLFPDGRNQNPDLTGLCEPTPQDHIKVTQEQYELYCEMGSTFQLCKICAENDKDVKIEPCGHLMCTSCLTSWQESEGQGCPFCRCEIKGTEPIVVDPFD
Chain of c-Cbl (residues 47-435) (P22681 47-435): as above

Compound `CO[C@H]1C[C@](c2cccc(N3Cc4c(cc(CNC[C@@H]5[C@@H](C)C5(F)F)cc4C(F)(F)F)C3=O)c2)(c2nncn2C)C1` [Compound 503, 6-(((((1S,3R)-2,2-difluoro-3-methylcyclopropyl)methyl)amino)methyl)-2-(3-((1r,3S)-3-methoxy-1-(4-methyl-4H-1,2,4-triazol-3-yl)cyclobutyl)phenyl)-4-(trifluoromethyl)isoindolin-1-one] came in with a Fold of selectivity in experiment [1] of 22×. The Kd (as a rule, the concentration at which binding is half-saturated) in experiment [1] turned out to be 2 nM; on c-Cbl (residues 47-435) it was 44 nM. The IC50 (commonly the concentration needed to halve the response being measured) against c-Cbl was 26 nM; on Cbl-b it was 8.5 nM. Further, the “(fold-selectivity) Cbl-b and C-Cbl Selectivity” value at Cbl-b turned out to be 3.0x.
Compound `CO[C@H]1C[C@](c2cccc(N3Cc4c(cc(CNC5CC6(C5)CC6F)cc4C(F)(F)F)C3=O)c2)(c2nncn2C)C1` (stereo partly drawn) [Compound 504, 6-(((1-fluorospiro[2.3]hexan-5-yl)amino)methyl)-2-(3-((1r,3r)-3-methoxy-1-(4-methyl-4H-1,2,4-triazol-3-yl)cyclobutyl)phenyl)-4-(trifluoromethyl)isoindolin-1-one] displayed a Fold of selectivity in experiment [1] of 16×. Besides, the Kd in experiment [1] worked out at 5.7 nM; on c-Cbl (residues 47-435), 90 nM. The half-inhibitory concentration (IC50) at c-Cbl stood at 68 nM; against Cbl-b it was 13 nM. For the same compound, the “(fold-selectivity) Cbl-b and C-Cbl Selectivity” value on Cbl-b is given as 5.1x.
As for `CO[C@H]1C[C@](c2cccc(N3Cc4c(cc(CNC5CC(C#N)C5)cc4C(F)(F)F)C3=O)c2)(c2nncn2C)C1` (stereo partly drawn) [Compound 505, 3-(((2-(3-((1r,3r)-3-methoxy-1-(4-methyl-4H-1,2,4-triazol-3-yl)cyclobutyl)phenyl)-3-oxo-7-(trifluoromethyl)isoindolin-5-yl)methyl)amino)cyclobutanecarbonitrile], the Fold of selectivity in experiment [1] turned out to be 12×. Besides, the results for the dissociation constant (Kd) (in experiment [1]; at c-Cbl (residues 47-435)) were 4.7 nM and 64 nM, respectively. For the same compound, the values for the half-inhibitory concentration (IC50) at c-Cbl and at Cbl-b were 30 nM and 7.3 nM, respectively. In addition, the “(fold-selectivity) Cbl-b and C-Cbl Selectivity” value at Cbl-b was 4.1x.
On to `CO[C@H]1C[C@](c2cccc(N3Cc4c(cc(CNCC5(CF)CCC5)cc4C(F)(F)F)C3=O)c2)(c2nncn2C)C1` [Compound 507, 6-((((1-(fluoromethyl)cyclobutyl)methyl)amino)meth-yl)-2-(3-((1r,3r)-3-methoxy-1-(4-methyl-4H-1,2,4-triazol-3-yl)cyclobutyl)phenyl)-4-(trifluoromethyl)isoindolin-1-one], for which, in experiment [1], the Fold of selectivity worked out at 15×. For the same compound, the Kd in experiment [1] stood at 3.5 nM; at c-Cbl (residues 47-435) it was 52 nM. In addition, the half-maximal inhibitory concentration (IC50) was found to be 42 nM at c-Cbl and 9.3 nM on Cbl-b. In addition, at Cbl-b, the “(fold-selectivity) Cbl-b and C-Cbl Selectivity” value is given as 4.5x.
`CO[C@H]1C[C@](c2cccc(N3Cc4c(cc(CN[C@@]56CCC[C@@H]5C6)cc4C(F)(F)F)C3=O)c2)(c2nncn2C)C1` [Compound 508, 6-(((1R,5R)-bicyclo[3.1.0]hexan-1-ylamino)methyl)-2-(3-((1r,3R)-3-methoxy-1-(4-methyl-4H-1,2,4-triazol-3-yl)cyclobutyl)phenyl)-4-(trifluoromethyl)isoindolin-1-one]: in experiment [1], the Fold of selectivity was found to be 14× and binding was put at a Kd of 1.7 nM. For the same compound, the IC50 on c-Cbl was 24 nM. Binding on c-Cbl (residues 47-435) was characterised by a dissociation constant (Kd) of 24 nM. Moreover, at Cbl-b, half-maximal inhibition (IC50) was put at 6.2 nM; the “(fold-selectivity) Cbl-b and C-Cbl Selectivity” value is on record as 3.8x.
In the case of `CO[C@H]1C[C@](c2cccc(N3Cc4c(cc(CNCC5(CO)CC6CC6C5)cc4C(F)(F)F)C3=O)c2)(c2nncn2C)C1` (stereo partly drawn) [Compound 509, 6-((((3-(hydroxymethyl)bicyclo[3.1.0]hexan-3-yl)methyl)amino)methyl)-2-(3-((1r,3r)-3-methoxy-1-(4-methyl-4H-1,2,4-triazol-3-yl)cyclobutyl)phenyl)-4-(trifluoromethyl)isoindolin-1-one], the Fold of selectivity in experiment [1] was determined as 13×. Further, the Kd was 6 nM in experiment [1] and 75 nM on c-Cbl (residues 47-435). The concentration for half-maximal inhibition (IC50) came out at 75 nM against c-Cbl and 16 nM at Cbl-b. At Cbl-b, the “(fold-selectivity) Cbl-b and C-Cbl Selectivity” value stood at 4.7x.
In experiment [1], `CO[C@H]1C[C@](c2cccc(N3Cc4c(cc(CNCC5CC56CC6(F)F)cc4C(F)(F)F)C3=O)c2)(c2nncn2C)C1` (stereo partly drawn) [Compound 510] returned a Fold of selectivity of 18×. The dissociation constant Kd in experiment [1] is 3.4 nM; on c-Cbl (residues 47-435), 60 nM. For the same compound, the figures for the concentration for half-maximal inhibition (IC50) at c-Cbl and at Cbl-b were 51 nM and 12 nM, respectively. Further, the “(fold-selectivity) Cbl-b and C-Cbl Selectivity” value at Cbl-b is 4.2x.
In experiment [1], `CCCNCc1cc2c(c(C(F)(F)F)c1)CN(c1cccc([C@]3(c4nncn4C)C[C@H](OC)C3)c1)C2=O` [Compound 511, 2-(3-((1r,3r)-3-methoxy-1-(4-methyl-4H-1,2,4-triazol-3-yl)cyclobutyl)phenyl)-6-((propylamino)methyl)-4-(trifluoromethyl)isoindolin-1-one] displayed a Fold of selectivity of 13× and a dissociation constant Kd of 5 nM. The compound also returned a half-inhibitory concentration (IC50) on c-Cbl of 61 nM. Besides, binding at c-Cbl (residues 47-435) was put at a Kd of 65 nM. At Cbl-b, 12 nM corresponded to half-maximal inhibition (IC50); the “(fold-selectivity) Cbl-b and C-Cbl Selectivity” value is 5.0x.

The values are drawn from patent publication US12187709B2 (Genentech, Inc., priority 2021, dated 2025).
